The values below come from US20230278974A1, “ANTITUMORAL ASCORBIC ACID ESTERS” (SUIGENERIS FARMACOSMETICS, S.L., priority 2020, published 2023).

The assay relates to primary or metastatic human cancer cells from various origins (IGR39, IGR37, MW115, MW266.4, DLD1, SW480, HCT116, NUG-C4, COLO668, BXPC3, CAPAN2, RWP1). Briefly: Growth inhibition of human cancer cell lines (crystal violet staining, 96 well plates). Particulars: even at concentrations as low as 0.2 mM; 72 h treatment. In kind it is cell-based. An excerpt: The BXPC3, CAPAN2, RWP1 cell lines from human pancreatic cancer were provided by the Biomedical Research Institute (IRB) Barcelona; the MW115 and IGR39 cell lines from human primary melanoma and MW 266.4 and IGR37 from human metastatic melanoma were provided by Dr. Manel Esteller from the Catalan Institute of Oncology (ICO) Barcelona (Vizoso M. et al., “Epigenetic activation of a cryptic TBC1D16 transcript enhances melanoma progression by targeting EGFR” Nat Med., 2015, vol 21(7), pp. 741-50); DLDL1, SW480 and HCT116 cell lines from human colon cancer were provided by Dra. Neus Agell from the Research Institute August Pi Sunyer (IDIBAPS) - University of Barcelona (UB); NUG-C4 and COLO668 cell lines from human gastric and lung cancers, respectively, were provided by the Center for Genomic Regulation (CRG) Barcelona. […]
The cells were resuspended by trypsin/EDTA digestion with 0.5% Trypsin-EDTA in the case of different human cancer cell lines, and 0.25% Trypsin-EDTA in the case of human primary endothelial cells. Once resuspended in culture medium, they were counted in Newbauer chamber after a 1:1 dilution with trypan blue. […]
The optical density values per well were obtained by a Biotek Synergy™2 multi-detection microplate reader, using a 590 nm filter and by scanning reading, obtaining the mean values per well.

Turning to `CCCCCCC1CCC(CCC(=O)OC[C@H](O)[C@H]2OC(=O)C(O)=C2O)CC1` (stereo partly drawn) [Compound Ib, (S)-2-((R)-3,4-Dihydroxy-5-Oxo-2,5-Dihydrofuran-2-Yl)-2-Hydroxyethyl 3-(4-Hexylcyclohexyl)Propanoate], the “inhibitory capacity on growth of cancer cells” value was “remarkable inhibitory capacity”.
